Values quoted from earlier work, collected in patent US7588929B2, “Production of bacteriophage compositions for use in phage therapy” (Phage Biopharm LLC, priority 2002, dated 2009).

Test system: phage-2 inactivation by BI-LPS
Conditions: inactivation 95% in controls without sugar

| Structure (SMILES) | concentration reducing inactivation to 50% |
| --- | --- |
| CC(=O)N[C@H]1C(O)O[C@H](CO)[C@@H](O)[C@@H]1O (stereo partly drawn) [N-acetyl-D-glucosamine] | about 1.4 M |
| O=CC[C@@H](O)[C@H](O)[C@H](O)CO [2-deoxy-D-glucose] | 1 M |
| O=C[C@H](O)[C@@H](O)[C@H](O)CO [D-xylose] | about 1.4 M |
| N[C@H]1C(O)O[C@H](CO)[C@@H](O)[C@@H]1O (stereo partly drawn) [D-glucosamine] | 0.25-0.3 M |
| C[C@H](O)[C@H](O)[C@@H](O)[C@@H](O)C=O [L-rhamnose] | 1 M |
| O=C[C@@H](O)[C@@H](O)[C@H](O)[C@H](O)CO [D-mannose] | 1 M |
| O=C[C@H](O)[C@@H](O)[C@@H](O)[C@H](O)CO [D-galactose] | about 1.4 M |
| O=C[C@H](O)[C@@H](O)[C@H](O)[C@H](O)CO [D-glucose] | 1 M |
